Laboratory results as given in PubChem BioAssay AID330 (DTP/NCI, 2004).
“And” between values parts separate entries of the source, which are not always exact repeats. Equal values may be shown once. Inconclusive results and toxic doses are left out.

Tested on: P388 leukemia ip, CD2F1 mice, survival T/C
Assay: NCI In Vivo Anticancer Drug Screen. Data for tumor model P388 Leukemia (intraperitoneal) in CD2F1 (CDF1) mice
Conditions: endpoint: median survival time, higher = longer survival
Outline: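 Mice carrying the transplanted tumor received test compound or vehicle. Survival was recorded in each group, and the value is the treated-group measurement divided by that of the vehicle-treated control group.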

[1] = dose: 50.0 mg/kg/injection, schedule: Q01DX009 (ip), vehicle: saline with Tween-80
[2] = dose: 100.0 mg/kg/injection, schedule: Q01DX009 (ip), vehicle: saline with Tween-80
[3] = dose: 200.0 mg/kg/injection, schedule: Q01DX009 (ip), vehicle: saline with Tween-80
[4] = dose: 50.0 mg/kg/injection, schedule: Q01DX005 (ip), vehicle: Klucel (hydroxypropylcellulose) (HPC)
[5] = dose: 50.0 mg/kg/injection, schedule: Q01DX009 (ip), vehicle: Klucel (hydroxypropylcellulose) (HPC)
[6] = dose: 100.0 mg/kg/injection, schedule: Q01DX009 (ip), vehicle: Klucel (hydroxypropylcellulose) (HPC)
[7] = dose: 200.0 mg/kg/injection, schedule: Q01DX009 (ip), vehicle: Klucel (hydroxypropylcellulose) (HPC)
[8] = dose: 60.0 mg/kg/injection, schedule: Q01DX005 (ip), vehicle: saline with Tween-80
[9] = dose: 120.0 mg/kg/injection, schedule: Q01DX005 (ip), vehicle: saline with Tween-80
[10] = dose: 240.0 mg/kg/injection, schedule: Q01DX005 (ip), vehicle: saline with Tween-80
[11] = dose: 100.0 mg/kg/injection, schedule: Q01DX005 (ip), vehicle: Klucel (hydroxypropylcellulose) (HPC)
[12] = dose: 200.0 mg/kg/injection, schedule: Q01DX005 (ip), vehicle: Klucel (hydroxypropylcellulose) (HPC)
[13] = dose: 200.0 mg/kg/injection, schedule: Q01DX009 (ip), vehicle: saline

## N#C/C(=C/N)C(N)=O
[1]
  T/C: 104 % of control
[2]
  T/C: 103 % of control
[3]
  T/C: 103 % of control

## O=[N+]([O-])c1ccc(S(=O)(=O)/N=C/c2ccccc2)cc1
[1]
  T/C: 96 % of control
[2]
  T/C: 98 % of control
[3]
  T/C: 95 % of control

## [Cl][Pd][Cl].[NH-]C(CC(N)=O)C(=O)O (stereo not given)
dose: 12.5 mg/kg/injection, schedule: Q01DX005 (ip), vehicle: Klucel (hydroxypropylcellulose) (HPC)
  T/C: 101 % of control
dose: 25.0 mg/kg/injection, schedule: Q01DX005 (ip), vehicle: Klucel (hydroxypropylcellulose) (HPC)
  T/C: 95 % of control
[4]
  T/C: 100 % of control and 113 % of control

## C=Cc1ccc(Oc2ccccc2)cc1
dose: 25.0 mg/kg/injection, schedule: Q04DX003 (ip), vehicle: saline
  T/C: 100 % of control
dose: 50.0 mg/kg/injection, schedule: Q04DX003 (ip), vehicle: saline
  T/C: 95 % of control
dose: 100.0 mg/kg/injection, schedule: Q04DX003 (ip), vehicle: saline
  T/C: 109 % of control

## CSc1nc(N)c(C(=O)N2CCCCC2)s1
[5]
  T/C: 100 % of control
[6]
  T/C: 100 % of control
[7]
  T/C: 89 % of control

## CCOC(=O)c1c(C)n(C)c2c1nnc1ccccc12
[8]
  T/C: 98 % of control
[9]
  T/C: 90 % of control
[10]
  T/C: 86 % of control

## O=CNNc1cccc(Cl)n1
dose: 100.0 mg/kg/injection, schedule: Q01DX001 (ip), vehicle: Klucel (hydroxypropylcellulose) (HPC)
  T/C: 97 % of control
dose: 200.0 mg/kg/injection, schedule: Q01DX001 (ip), vehicle: Klucel (hydroxypropylcellulose) (HPC)
  T/C: 97 % of control
dose: 400.0 mg/kg/injection, schedule: Q01DX001 (ip), vehicle: Klucel (hydroxypropylcellulose) (HPC)
  T/C: 98 % of control

## O=C1c2ccccc2S(=O)(=O)N1Cc1ccccc1CN1C(=O)c2ccccc2S1(=O)=O
[4]
  T/C: 92 % of control
[11]
  T/C: 89 % of control
[12]
  T/C: 89 % of control

## CC(=O)OCC12CCC(C)=CC1O[C@H]1[C@@H](OC(C)=O)[C@H](OC(C)=O)[C@]2(C)[C@@]12CO2 (stereo not given in full)
dose: 0.2 mg/kg/injection, schedule: Q01DX009 (ip), vehicle: saline + alcohol
  T/C: 115 % of control
dose: 0.8 mg/kg/injection, schedule: Q01DX009 (ip), vehicle: saline + alcohol
  T/C: 173 % of control
dose: 2.0 mg/kg/injection, schedule: Q04DX003 (ip), vehicle: saline + alcohol
  T/C: 120 % of control

## O=C1c2ccccc2C(=O)N1CCNCCN1C(=O)c2ccccc2C1=O
[8]
  T/C: 103 % of control
[9]
  T/C: 93 % of control
[10]
  T/C: 93 % of control

## Cc1ccc([B-]23OCC[N+]2(CNC(=O)c2ccccc2O)CCO3)cc1 (stereo not given)
[4]
  T/C: 103 % of control
[11]
  T/C: 108 % of control
[12]
  T/C: 103 % of control

## CN(C)CCCNc1nc(NCCCN(C)C)c2nc(-c3ccccc3)c(-c3ccccc3)nc2n1
dose: 12.5 mg/kg/injection, schedule: Q01DX005 (ip), vehicle: saline with Tween-80
  T/C: 97 % of control
dose: 25.0 mg/kg/injection, schedule: Q01DX005 (ip), vehicle: saline with Tween-80
  T/C: 88 % of control
dose: 50.0 mg/kg/injection, schedule: Q01DX005 (ip), vehicle: saline with Tween-80
  T/C: 88 % of control

## O=c1oc2c(ccc3nc(-c4ccccc4)sc32)c(N2CCOCC2)c1Cl
[4]
  T/C: 92 % of control
[11]
  T/C: 91 % of control
[12]
  T/C: 89 % of control

## Cc1cccc(Cl)c1NC(=O)N(C)c1ccccc1
[8]
  T/C: 99 % of control
[9]
  T/C: 100 % of control
[10]
  T/C: 97 % of control

## CCOC(=O)C(N)CSC(=O)NC (stereo not given)
dose: 10.4 mg/kg/injection, schedule: Q03HX024 (ip), vehicle: saline
  T/C: 118 % of control
dose: 20.8 mg/kg/injection, schedule: Q03HX024 (ip), vehicle: saline
  T/C: 124 % of control
dose: 25.0 mg/kg/injection, schedule: Q01DX005 (ip), vehicle: saline
  T/C: 108 % of control
dose: 27.7 mg/kg/injection, schedule: Q01DX009 (ip), vehicle: saline
  T/C: 119 % of control
dose: 27.7 mg/kg/injection, schedule: Q01DX009 (oral), vehicle: saline
  T/C: 109 % of control
dose: 31.2 mg/kg/injection, schedule: Q03HX008 (ip), vehicle: saline
  T/C: 111 % of control
dose: 50.0 mg/kg/injection, schedule: Q01DX005 (ip), vehicle: saline
  T/C: 112 % of control and 114 % of control (2×)
dose: 50.0 mg/kg/injection, schedule: Q01DX005 (iv), vehicle: saline
  T/C: 101 % of control
dose: 55.5 mg/kg/injection, schedule: Q01DX009 (oral), vehicle: saline
  T/C: 111 % of control
dose: 62.5 mg/kg/injection, schedule: Q03HX008 (ip), vehicle: saline
  T/C: 120 % of control
dose: 83.3 mg/kg/injection, schedule: Q03HX024 (ip), vehicle: saline
  T/C: 162 % of control
dose: 83.3 mg/kg/injection, schedule: Q04DX003 (ip), vehicle: saline
  T/C: 113 % of control
dose: 100.0 mg/kg/injection, schedule: Q01DX005 (iv), vehicle: saline
  T/C: 106 % of control
dose: 111.1 mg/kg/injection, schedule: Q01DX009 (oral), vehicle: saline
  T/C: 120 % of control
dose: 133.0 mg/kg/injection, schedule: Q01DX009 (ip), vehicle: saline
  T/C: 152 % of control
dose: 166.6 mg/kg/injection, schedule: Q03HX024 (ip), vehicle: saline
  T/C: 187 % of control
dose: 166.6 mg/kg/injection, schedule: Q04DX003 (ip), vehicle: saline
  T/C: 120 % of control
dose: 200.0 mg/kg/injection, schedule: Q01DX005 (iv), vehicle: saline
  T/C: 118 % of control
[13]
  T/C: 154 % of control
dose: 222.2 mg/kg/injection, schedule: Q01DX009 (ip), vehicle: saline
  T/C: 156 % of control
dose: 250.0 mg/kg/injection, schedule: Q01DX001 (ip), vehicle: saline
  T/C: 114 % of control
dose: 250.0 mg/kg/injection, schedule: Q01DX001 (iv), vehicle: saline
  T/C: 92 % of control
dose: 300.0 mg/kg/injection, schedule: Q01DX009 (ip), vehicle: saline
  T/C: 170 % of control
dose: 444.4 mg/kg/injection, schedule: Q01DX009 (ip), vehicle: saline
  T/C: 169 % of control
dose: 444.4 mg/kg/injection, schedule: Q01DX009 (oral), vehicle: saline
  T/C: 155 % of control
dose: 500.0 mg/kg/injection, schedule: Q01DX001 (ip), vehicle: saline
  T/C: 117 % of control
dose: 500.0 mg/kg/injection, schedule: Q01DX001 (iv), vehicle: saline
  T/C: 102 % of control
dose: 666.6 mg/kg/injection, schedule: Q04DX003 (ip), vehicle: saline
  T/C: 153 % of control
dose: 888.8 mg/kg/injection, schedule: Q01DX009 (oral), vehicle: saline
  T/C: 195 % of control
dose: 1000.0 mg/kg/injection, schedule: Q01DX001 (ip), vehicle: saline
  T/C: 119 % of control

## COC(=O)C(N)Cc1ccc(O)c(O)c1 (stereo not given)
dose: 50.0 mg/kg/injection, schedule: Q01DX009 (ip), vehicle: saline
  T/C: 101 % of control
dose: 50.0 mg/kg/injection, schedule: Q08HX028 (ip), vehicle: water
  T/C: 99 % of control
dose: 100.0 mg/kg/injection, schedule: Q01DX009 (ip), vehicle: saline
  T/C: 108 % of control and 115 % of control
dose: 100.0 mg/kg/injection, schedule: Q08HX028 (ip), vehicle: water
  T/C: 102 % of control
[13]
  T/C: 111 % of control and 121 % of control
dose: 200.0 mg/kg/injection, schedule: Q08HX028 (ip), vehicle: water
  T/C: 120 % of control
dose: 800.0 mg/kg/injection, schedule: Q01DX009 (ip), vehicle: saline
  T/C: 156 % of control

## COc1cc(-n2c(C)nc3ncn(-c4ccccc4)c3c2=O)cc(OC)c1OC
[4]
  T/C: 98 % of control
[11]
  T/C: 102 % of control
[12]
  T/C: 105 % of control

## O=c1cc(CO)[nH]cc1O
[5]
  T/C: 99 % of control
[6]
  T/C: 123 % of control
dose: 120.0 mg/kg/injection, schedule: Q01DX009 (ip), vehicle: saline with Tween-80
  T/C: 87 % of control
[7]
  T/C: 122 % of control
dose: 400.0 mg/kg/injection, schedule: Q01DX009 (ip), vehicle: saline with Tween-80
  T/C: 112 % of control

## COC(=O)C1c2c(C)cc3n2C(C(C)=CC3)C1C(=O)OC (stereo not given)
dose: 100.0 mg/kg/injection, schedule: Q04DX003 (ip), vehicle: Klucel (hydroxypropylcellulose) (HPC)
  T/C: 99 % of control
dose: 200.0 mg/kg/injection, schedule: Q04DX003 (ip), vehicle: Klucel (hydroxypropylcellulose) (HPC)
  T/C: 96 % of control
dose: 400.0 mg/kg/injection, schedule: Q04DX003 (ip), vehicle: Klucel (hydroxypropylcellulose) (HPC)
  T/C: 99 % of control
